{"source": "patent US20170056336A1", "about": "“CO-TARGETING ANDROGEN RECEPTOR SPLICE VARIANTS AND MTOR SIGNALING PATHWAY FOR THE TREATMENT OF CASTRATION-RESISTANT PROSTATE CANCER” (British Columbia Cancer Agency Branch, priority 2015, published 2017)", "key": {"EGFR/Erb1": {"target": "EGFR/Erb1 (Homo sapiens, UniProt P00533)", "sequence (P00533 25-1210)": "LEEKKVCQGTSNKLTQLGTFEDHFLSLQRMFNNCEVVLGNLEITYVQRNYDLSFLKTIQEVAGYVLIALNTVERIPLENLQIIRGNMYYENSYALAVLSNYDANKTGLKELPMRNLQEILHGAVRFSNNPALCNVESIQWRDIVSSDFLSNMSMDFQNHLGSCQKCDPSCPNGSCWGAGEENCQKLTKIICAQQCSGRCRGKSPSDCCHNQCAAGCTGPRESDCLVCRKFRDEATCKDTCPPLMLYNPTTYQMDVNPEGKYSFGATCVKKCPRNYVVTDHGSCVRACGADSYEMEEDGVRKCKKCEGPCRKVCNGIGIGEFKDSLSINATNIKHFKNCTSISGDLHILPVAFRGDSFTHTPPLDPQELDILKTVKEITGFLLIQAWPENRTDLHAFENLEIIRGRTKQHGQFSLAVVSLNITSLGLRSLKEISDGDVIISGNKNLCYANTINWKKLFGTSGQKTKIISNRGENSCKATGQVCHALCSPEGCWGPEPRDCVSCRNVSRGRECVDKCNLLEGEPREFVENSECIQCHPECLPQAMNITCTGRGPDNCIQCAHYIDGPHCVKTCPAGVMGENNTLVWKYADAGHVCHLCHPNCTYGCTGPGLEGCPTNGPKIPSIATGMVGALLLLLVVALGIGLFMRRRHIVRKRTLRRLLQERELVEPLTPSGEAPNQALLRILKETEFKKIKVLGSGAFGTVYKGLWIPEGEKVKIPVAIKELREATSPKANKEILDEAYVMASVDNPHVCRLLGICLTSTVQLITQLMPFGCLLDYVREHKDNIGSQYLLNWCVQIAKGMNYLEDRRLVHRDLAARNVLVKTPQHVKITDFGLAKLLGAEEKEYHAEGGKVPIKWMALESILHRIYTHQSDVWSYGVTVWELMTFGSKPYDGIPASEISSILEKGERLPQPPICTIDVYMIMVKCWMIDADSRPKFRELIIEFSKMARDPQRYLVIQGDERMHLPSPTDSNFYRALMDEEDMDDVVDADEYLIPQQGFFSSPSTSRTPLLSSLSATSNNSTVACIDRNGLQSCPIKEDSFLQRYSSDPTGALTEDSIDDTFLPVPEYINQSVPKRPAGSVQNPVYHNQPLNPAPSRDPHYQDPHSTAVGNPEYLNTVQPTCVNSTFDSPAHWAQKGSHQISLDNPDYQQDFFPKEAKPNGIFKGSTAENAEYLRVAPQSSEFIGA", "details": "higher concentrations; read-out: concentration inhibiting EGFR/Erb1; cited from earlier work"}, "[1]": {"tested_on": "genes regulated by FL-AR and AR-V7 in LNCaP95 cells", "test": "Gene expression analysis (quantitative real-time RT-PCR) in LNCaP95 cells", "assay_type": "cell-based, human"}, "AR-V7": {"target": "T1, AR-V7 (Homo sapiens, UniProt P10275)", "T1 construct": "expressed in transfected cells; host or cells: Cos-1", "T1 sequence (P10275 1-644 isoform P10275-3)": "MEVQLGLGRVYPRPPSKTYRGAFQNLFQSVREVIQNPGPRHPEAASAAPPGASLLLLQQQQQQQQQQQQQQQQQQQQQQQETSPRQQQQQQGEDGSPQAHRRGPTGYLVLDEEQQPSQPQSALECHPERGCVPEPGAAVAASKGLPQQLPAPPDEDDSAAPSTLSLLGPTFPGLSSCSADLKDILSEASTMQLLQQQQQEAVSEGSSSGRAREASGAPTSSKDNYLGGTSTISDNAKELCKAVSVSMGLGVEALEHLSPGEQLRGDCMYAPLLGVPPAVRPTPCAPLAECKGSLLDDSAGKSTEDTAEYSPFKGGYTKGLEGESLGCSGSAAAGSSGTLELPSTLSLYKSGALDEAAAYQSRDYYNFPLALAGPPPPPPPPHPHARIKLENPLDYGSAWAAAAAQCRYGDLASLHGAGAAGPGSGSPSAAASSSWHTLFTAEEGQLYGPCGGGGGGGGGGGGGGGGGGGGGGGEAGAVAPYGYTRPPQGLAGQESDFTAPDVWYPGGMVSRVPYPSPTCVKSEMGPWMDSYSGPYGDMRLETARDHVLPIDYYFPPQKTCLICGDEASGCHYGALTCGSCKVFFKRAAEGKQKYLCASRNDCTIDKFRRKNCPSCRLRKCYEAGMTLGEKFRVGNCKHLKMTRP", "test": "PB-luciferase assay in Cos-1 cells transfected with AR-V7", "assay_type": "cell-based", "details": "24 h, serum-free", "excerpt": "Ectopic protein levels of AR-V7 and AR-V567 in Cos-1 cells are shown relative to endogenous levels of FL-AR in LNCaP cells."}, "AR NTD [2]": {"target": "T2, AR NTD (Homo sapiens, UniProt P10275)", "T2 sequence (P10275 1-558)": "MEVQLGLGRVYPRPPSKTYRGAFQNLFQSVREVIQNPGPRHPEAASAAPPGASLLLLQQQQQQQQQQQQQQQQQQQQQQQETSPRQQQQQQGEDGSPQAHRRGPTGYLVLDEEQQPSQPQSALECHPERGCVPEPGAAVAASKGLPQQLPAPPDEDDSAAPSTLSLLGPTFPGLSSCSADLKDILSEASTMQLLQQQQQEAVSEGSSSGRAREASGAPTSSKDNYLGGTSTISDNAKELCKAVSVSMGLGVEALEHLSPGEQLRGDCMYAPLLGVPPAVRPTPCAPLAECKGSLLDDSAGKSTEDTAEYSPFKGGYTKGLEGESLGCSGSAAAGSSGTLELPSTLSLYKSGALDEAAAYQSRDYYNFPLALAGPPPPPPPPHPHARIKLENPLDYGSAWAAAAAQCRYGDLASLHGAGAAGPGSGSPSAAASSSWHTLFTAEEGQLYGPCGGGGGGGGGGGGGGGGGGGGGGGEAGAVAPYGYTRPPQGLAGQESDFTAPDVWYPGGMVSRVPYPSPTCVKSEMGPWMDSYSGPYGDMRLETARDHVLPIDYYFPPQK", "test": "AR NTD transactivation assay in LNCaP95 cells", "assay_type": "cell-based", "details": "24 h", "experimental": "(§1) Transactivation assays of the AR NTD were performed in LNCaP and LNCaP95 cells cotransfected with p5xGal4UAS-TATA-luciferase and AR NTD-Gal4DBD (FIG. 2D). […] LNCaP95 cells were harvested 24 h after the treatment of indicated compounds.\n(§2) The AR NTD is essential for full transcriptional activities (Quayle, S. N. et. al., PNAS 2007, 104, 1331-1336). In LNCaP cells, transactivation of the AR NTD can be induced with IL-6 or by stimulation of the PKA pathway with FSK. In LNCaP95 cells, there is high intrinsic activity of the AR NTD which cannot be further induced by stimulation of these pathways."}, "LNCaP95 cells": {"tested_on": "LNCaP95 cells", "test": "Titration of BEZ-235 for cytotoxicity in LNCaP95 cells", "assay_type": "cell-based, human"}, "AR NTD [3]": {"target": "T2, AR NTD", "test": "AR NTD transactivation assay in LNCaP cells", "assay_type": "cell-based", "details": "24 h", "experimental": "as §1, §2"}, "[4]": {"details": "BEZ-235 orally daily at 5 mg/kg body weight"}}}
{"compound": "Cn1c(=O)n(-c2ccc(C(C)(C)C#N)cc2)c2c3cc(-c4cnc5ccccc5c4)ccc3ncc21", "note": "[BEZ-235, 2-methyl-2-[4-(3-methyl-2-oxo-8-quinolin-3-ylimidazo[4,5-c]quinolin-1-yl)phenyl]propanenitrile]", "values": [{"measurement": "mortality of the animals", "setting": "BEZ-235 45 mg/kg body weight", "result": 66, "unit": "%"}, {"measurement": "mTOR in tumors", "setting": "[4]", "result": "sufficient to block"}, {"measurement": "pAkt in tumors", "setting": "[4]", "result": "not"}, {"measurement": "toxicity", "setting": "[4]", "result": "non-toxic"}, {"measurement": "IC50", "setting": "EGFR/Erb1", "result": "> 8.5", "unit": "µM"}, {"measurement": "TMPRSS2 or FKBP5 transcripts in response to BEZ-235", "setting": "[1]", "result": "No similar effects"}, {"measurement": "levels of FL-AR transcript", "setting": "[1]", "result": "did not increase"}, {"measurement": "increase in transcript levels of AR-V7", "setting": "[1]; absence of androgen", "result": "greater than 2 fold"}, {"measurement": "levels of PSA transcript", "setting": "[1]; absence of androgen", "result": "induced"}, {"measurement": "transcript levels of AR-V7 target genes (UBE2C, CDC20, Akt1)", "setting": "[1]; absence of androgen", "result": "consistently reduced"}, {"measurement": "androgen-induced levels of PSA transcripts", "setting": "[1]; compared to androgen alone", "result": "significantly increased"}, {"measurement": "UBE2C levels", "setting": "[1]; monotherapy, regardless of androgen", "result": "attenuated"}, {"measurement": "transcriptional activity of AR-V7", "setting": "AR-V7", "result": "no effect"}, {"measurement": "intrinsic activity of AR NTD", "setting": "AR NTD [2]", "result": "no effect"}, {"measurement": "cytotoxicity", "setting": "LNCaP95 cells; 500 nM BEZ-235", "result": "enormous cytotoxicity"}, {"measurement": "non-toxic concentration", "setting": "LNCaP95 cells; titration experiments", "result": 15, "unit": "nM"}, {"measurement": "AR-NTD transactivation induced by FSK", "setting": "AR NTD [3]; FSK 50 uM", "result": "no effect"}, {"measurement": "AR-NTD transactivation induced by IL-6", "setting": "AR NTD [3]; IL-6 50 ng/ml", "result": "significantly inhibited"}]}
